In paper PMC5988692, “AZ304, a novel dual BRAF inhibitor, exerts anti-tumour effects in colorectal cancer independently of BRAF genetic status” (British Journal of Cancer, 2018):

Columns and labels:
[1] = target: CSF1R (Homo sapiens, UniProt P07333); assay: AlphaScreen kinase assay; type: biochemical; settings: ATP Km
Method: (§1) For RAF kinases, detailed assay information was described in ref.[18] Briefly, the kinase activity of BRAF WT, BRAF V600E, or CRAF was measured using an AlphaScreen assay (Perkin Elmer, MA) monitoring MEK1/2 phosphorylation at Ser217/221. For CDK2 and CDK4 kinases, activity was also measured by AlphaScreen, monitoring phosphorylation of biotin Rb peptide at Ser780. Similarly, MAP3K7, CSF1R and JAK2 kinase activity was measured by phosphorylation of their biotinylated substrates MKK6 kinase dead protein at Ser271/Thr275, or tyrosine phosphorylation of pEY or Tyk2 Tyr1054/1055 peptides, respectively. CSK, IGF1R, EGFR, FGFR1 and SRC kinase activity was measured using a sandwich ELISA detecting phosphorylated poly EAY peptide with a HRP conjugated phosphotyrosine antibody and TMB substrate, while p38 kinase activity was measured by monitoring phosphorylation of MBP protein with radiolabeled ^33P-ATP in a filter binding format. All assays were screened under respective ATP Km conditions and inhibitor IC50s were derived from either 5 (RAF kinases, CDK2, CDK4, MAP3K7, JAK2), 10 (CSK, IGF1R, EGFR, FGFR1, SRC) or 11 (p38, CSF1R) point compound dose response.

[2] = target: JAK2 (Homo sapiens, UniProt O60674); assay: AlphaScreen kinase assay; type: biochemical; settings: ATP Km
Sequence of JAK2 (O60674 whole entry, species assumed): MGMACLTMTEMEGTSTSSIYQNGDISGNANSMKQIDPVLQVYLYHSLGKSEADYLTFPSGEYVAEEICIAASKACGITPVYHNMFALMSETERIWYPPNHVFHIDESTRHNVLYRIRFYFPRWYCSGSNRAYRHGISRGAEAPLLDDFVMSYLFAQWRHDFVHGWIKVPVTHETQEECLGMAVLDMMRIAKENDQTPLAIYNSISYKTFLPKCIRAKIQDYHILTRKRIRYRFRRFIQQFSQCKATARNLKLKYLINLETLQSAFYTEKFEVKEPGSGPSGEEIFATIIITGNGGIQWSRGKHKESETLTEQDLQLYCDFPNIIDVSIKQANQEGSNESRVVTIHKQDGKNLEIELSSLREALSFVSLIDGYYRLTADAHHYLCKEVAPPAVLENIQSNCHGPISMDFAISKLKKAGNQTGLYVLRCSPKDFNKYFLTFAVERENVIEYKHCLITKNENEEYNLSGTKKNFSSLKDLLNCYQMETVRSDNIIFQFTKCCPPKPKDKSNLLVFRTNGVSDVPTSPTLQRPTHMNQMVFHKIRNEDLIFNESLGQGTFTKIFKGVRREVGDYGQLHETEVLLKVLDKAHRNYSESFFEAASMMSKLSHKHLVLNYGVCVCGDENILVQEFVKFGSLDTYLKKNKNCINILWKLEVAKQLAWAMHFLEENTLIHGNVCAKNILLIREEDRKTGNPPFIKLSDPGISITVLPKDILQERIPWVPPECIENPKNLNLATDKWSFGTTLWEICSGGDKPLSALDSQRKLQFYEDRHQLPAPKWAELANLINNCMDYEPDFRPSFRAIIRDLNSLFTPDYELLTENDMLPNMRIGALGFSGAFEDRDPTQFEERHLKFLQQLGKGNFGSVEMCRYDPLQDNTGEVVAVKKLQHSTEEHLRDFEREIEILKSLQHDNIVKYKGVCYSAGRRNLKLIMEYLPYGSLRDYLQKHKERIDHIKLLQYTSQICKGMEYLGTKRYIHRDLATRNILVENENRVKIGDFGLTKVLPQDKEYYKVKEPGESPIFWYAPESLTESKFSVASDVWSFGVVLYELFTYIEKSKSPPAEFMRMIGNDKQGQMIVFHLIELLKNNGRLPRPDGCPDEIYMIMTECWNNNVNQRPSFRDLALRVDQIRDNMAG
Method: as §1

[3] = target: MAP3K7 (Homo sapiens, UniProt O43318); assay: AlphaScreen kinase assay; type: biochemical; settings: ATP Km
Sequence of MAP3K7 (O43318 whole entry, species assumed): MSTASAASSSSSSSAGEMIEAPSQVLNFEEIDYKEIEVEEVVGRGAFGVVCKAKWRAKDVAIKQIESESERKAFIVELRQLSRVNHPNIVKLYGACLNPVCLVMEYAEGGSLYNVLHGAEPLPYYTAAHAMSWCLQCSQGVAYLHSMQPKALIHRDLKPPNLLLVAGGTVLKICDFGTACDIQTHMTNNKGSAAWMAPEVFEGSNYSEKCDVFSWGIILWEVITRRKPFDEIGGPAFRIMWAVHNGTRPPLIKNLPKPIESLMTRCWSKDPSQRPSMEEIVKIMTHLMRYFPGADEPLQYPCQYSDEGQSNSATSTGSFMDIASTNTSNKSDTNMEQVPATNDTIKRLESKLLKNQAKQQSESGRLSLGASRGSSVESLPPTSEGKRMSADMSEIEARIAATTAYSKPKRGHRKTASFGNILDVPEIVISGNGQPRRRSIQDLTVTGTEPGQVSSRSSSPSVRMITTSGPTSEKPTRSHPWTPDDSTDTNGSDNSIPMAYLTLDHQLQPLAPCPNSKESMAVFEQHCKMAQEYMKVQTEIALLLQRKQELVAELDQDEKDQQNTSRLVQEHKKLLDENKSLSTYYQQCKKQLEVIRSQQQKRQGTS
Sequence of MAP3K7 (Q15750 whole entry partner, species assumed): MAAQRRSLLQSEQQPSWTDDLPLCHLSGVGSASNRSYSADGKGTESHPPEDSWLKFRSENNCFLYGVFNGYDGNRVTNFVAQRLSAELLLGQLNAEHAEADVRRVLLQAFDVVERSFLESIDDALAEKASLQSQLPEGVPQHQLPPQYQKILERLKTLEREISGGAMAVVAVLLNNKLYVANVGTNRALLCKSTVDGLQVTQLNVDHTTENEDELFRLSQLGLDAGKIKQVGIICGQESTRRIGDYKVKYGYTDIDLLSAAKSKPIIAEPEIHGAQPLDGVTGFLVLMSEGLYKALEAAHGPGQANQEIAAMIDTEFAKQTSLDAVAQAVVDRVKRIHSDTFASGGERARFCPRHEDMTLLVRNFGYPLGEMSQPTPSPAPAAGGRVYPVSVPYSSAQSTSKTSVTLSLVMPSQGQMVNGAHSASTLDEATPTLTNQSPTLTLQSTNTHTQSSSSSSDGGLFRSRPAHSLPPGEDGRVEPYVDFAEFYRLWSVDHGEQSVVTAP
Method: as §1

[4] = test system: Caco-2 xenografts; assay: Xenograft study (tumour growth, immunohistochemistry); type: in vivo, athymic BALB/c nude mice
Method: (§2) All in vivo experiments were performed in accordance with Institutional Review Board of China Medical University guidelines. Female 4–6 weeks old athymic BALB/c nude mice were purchased from Shanghai SLAC Laboratory Animal Centre (Shanghai, China). RKO/Caco-2 cells (1 × 10^7) in 200 μl PBS were injected subcutaneously into the right scapular region of mice. […] Tumours were measured with a caliper every 2 days, so did body weights. Tumour volume was calculated using the formula V = 1/2 (width^2 × length). Mice were terminated by CO2 inhalation when the tumour diameters reached 1.5 cm, according to the protocol filed with the Guidance of Institutional Animal Care and Use Committee of China Medical University.
(§3) Tumours were formalin-fixed, paraffin-embedded and prepared as described in our previous study for staining with haematoxylin and eosin.[19] […] The staining was evaluated by scanning the entire tissue specimen under low magnification (×10) and confirmed under high magnification (×20 and ×40). The protein expression was visualised and classified based on the percentage of positive cells and the intensity of staining. From each section, five visual fields were randomly selected. The degree of protein expression was based on the percentage of positive cells and the intensity of staining. Staining intensity was scored as 0 (no staining), 1 (low staining), 2 (intermediate staining), and 3 (high staining). For the staining area, ≤5%, 5–25%, 26–50, 51–75% >75% were recorded as 0, 1, 2, 3 and 4 points, respectively. Histological score = staining intensity × staining area. A score 0 was classified as negative (−), 1–4 points as weakly positive (+), 6–12 points as a strong positive (++). Final scores were assigned by two independent pathologists.
(§4) Student’s t-tests were used for statistical analyses. Data are plotted as mean ± SD. […] Tumours were harvested 4 h after dosing on day 10

[5] = test system: RKO xenografts; assay: as above; type: in vivo, athymic BALB/c nude mice
Method: as §2, §3, §4

[6] = Caco-2 xenograft tumours, day 10, 4 h after dosing, score = staining intensity × staining area
[7] = RKO xenograft tumours, day 10, 4 h after dosing, score = staining intensity × staining area

Sequence of CSF1R (P07333 20-972, species assumed): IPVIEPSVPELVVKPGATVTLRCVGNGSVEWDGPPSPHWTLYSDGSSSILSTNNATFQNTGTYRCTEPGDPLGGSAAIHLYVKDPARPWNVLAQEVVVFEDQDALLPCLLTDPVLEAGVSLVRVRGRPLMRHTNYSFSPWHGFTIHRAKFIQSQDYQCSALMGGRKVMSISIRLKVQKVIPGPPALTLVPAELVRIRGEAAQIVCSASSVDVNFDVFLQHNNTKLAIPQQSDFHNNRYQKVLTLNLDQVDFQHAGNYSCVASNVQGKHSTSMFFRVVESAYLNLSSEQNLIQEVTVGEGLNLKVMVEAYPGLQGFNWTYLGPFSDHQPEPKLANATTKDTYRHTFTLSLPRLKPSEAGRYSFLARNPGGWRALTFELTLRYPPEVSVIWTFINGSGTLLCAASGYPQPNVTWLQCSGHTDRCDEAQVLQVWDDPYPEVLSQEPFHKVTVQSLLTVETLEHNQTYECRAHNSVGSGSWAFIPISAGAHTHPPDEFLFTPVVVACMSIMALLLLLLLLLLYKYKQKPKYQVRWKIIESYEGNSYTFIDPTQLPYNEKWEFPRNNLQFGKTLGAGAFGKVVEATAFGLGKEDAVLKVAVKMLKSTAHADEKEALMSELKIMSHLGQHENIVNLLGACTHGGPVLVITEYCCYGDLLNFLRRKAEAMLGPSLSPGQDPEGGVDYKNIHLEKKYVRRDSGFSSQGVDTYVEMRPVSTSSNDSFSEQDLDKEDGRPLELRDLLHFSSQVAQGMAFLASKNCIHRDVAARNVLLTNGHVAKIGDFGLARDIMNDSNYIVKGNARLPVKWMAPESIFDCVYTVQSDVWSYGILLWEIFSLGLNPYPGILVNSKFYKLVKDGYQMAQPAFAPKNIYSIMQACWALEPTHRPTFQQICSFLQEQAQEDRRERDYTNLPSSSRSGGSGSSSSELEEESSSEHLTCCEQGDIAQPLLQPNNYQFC

For `COc1ccc2c(Nc3cc(NC(=O)c4cccc(C(C)(C)C#N)c4)ccc3C)ncnc2c1` [AZ304], the IC50 [1] was 0.035 µM, the IC50 [2] was > 10 µM and the IC50 [3] was 6.4 µM. For the same compound, the Ki67 histological score [4, 6] was 3.2 ±0.84, the p-AKT histological score [4, 6] was 6.8 ±1.10 and the p-EGFR histological score [4, 6] was 10.6 ±1.95. The p-ERK histological score [4, 6] was 4.8 ±1.10, the tumour growth ([4]; Caco-2 xenograft, AZ304 10 mg/kg oral twice daily, Cetuximab 40 mg/kg i.p. twice per week, 10 days, vs vehicle) was “reduced tumour growth” and the Ki67 histological score [5, 7] was 4.8 ±1.10. For the same compound, the p-AKT histological score [5, 7] was 4.2 ±2.28, the p-EGFR histological score [5, 7] was 10 ±1.87 and the p-ERK histological score [5, 7] was 3.2 ±1.10. For the same compound, the tumour growth ([5]; RKO xenograft, AZ304 10 mg/kg oral twice daily, Cetuximab 40 mg/kg i.p. twice per week, 10 days, vs vehicle) was “reduced tumour growth”.
